From ChEMBL document CHEMBL5500328, “Comprehensive review on the elaboration of payloads derived from natural products for antibody-drug conjugates” (Eur J Med Chem, 2024)
pIC50, pKd: −log10 of the molar value.

What was measured:
CCRF-CEM = assay: Cytotoxicity against human CCRF-CEM cells assessed as reduction in cell growth; assay type: functional, cell-based
KB 3-1 = assay: Cytotoxicity against human KB-3-1 cells assessed as inhibition of cell growth; assay type: functional, cell-based
Tubulin = assay: Binding affinity to tubulin (unknown origin) assessed as dissociation constant by SPR analysis; assay type: protein-complex assay, Homo sapiens
[1] = Cytotoxicity against human L540cy assessed as reduction in cell growth incubated for 4 days by CellTiter-Glo assay; assay type: functional, cell-based; settings: 96 h
KB = assay: Cytotoxicity against human KB cells assessed as reduction in cell viability; assay type: functional, cell-based
LoVo = assay: Cytotoxicity against human LoVo cells; assay type: functional, cell-based

## COc1ccc(C[C@H]2NC(=O)/C=C/C[C@@H]([C@H](C)[C@H]3O[C@H]3c3ccc(F)cc3)OC(=O)[C@H](CC(C)C)OC(=O)C(C)(C)CNC2=O)cc1Cl
CCRF-CEM
  pIC50: 10.48

## COc1ccc(C[C@H]2NC(=O)/C=C/C[C@@H]([C@H](C)[C@H]3O[C@H]3c3ccccc3)OC(=O)[C@H](CC(C)C)OC(=O)C(C)(C)CNC2=O)cc1Cl
KB 3-1
  pIC50: 10.82
Tubulin
  pKd: 7.33

## CC[C@@]1(O)C(=O)OCc2c1cc1n(c2=O)Cc2cc3c(CN)c4c(cc3nc2-1)OCO4
[1]
  pIC50: 9.00

## COc1ccc(C[C@H]2NC(=O)/C=C/C[C@@H]([C@H](C)[C@H]3O[C@H]3c3ccccc3)OC(=O)[C@H](CC(C)C)OC(=O)[C@H](C)CNC2=O)cc1Cl [CRYPTOPHYCIN 39]
KB
  pIC50: 11.34
LoVo
  pIC50: 11.12
